Test system: subcutaneous liver tumor of genetic constellation p53−/−+Akt-over expression
Assay: Subcutaneous liver cancer model, evaluation of tumor therapy (FIG. 7)
Type: in vivo, mouse
From the text: FIG. 7: An example of subcutaneous liver cancer model of this invention on the genetic constellation p53−/−+Akt-over expression and its uses in evaluating tumor therapy. Akt is an […] that is activated in many cancers and may promote drug resistance in vitro (Mayo et al., “PTEN protects p53 from Mdm2 and sensitizes cancer cells to chemotherapy,” J. Biol. Chem. 277: 5484-5489 (2002)).
Most preferably, the therapies are used and evaluated in combination. […] The tumor embodied in FIG. 2 can also be treated with Rapamycin, a targeted therapy that inhibits the mammalian target of rapamycin (mTOR). […] In combination, however, as depicted in FIG. 7, the two therapies control tumor growth.

Nc1ccn([C@@H]2O[C@H](CO)[C@@H](O)C2(F)F)c(=O)n1 [Gemcitabine]
tumor growth: virtually no effect on tumor growth
